{
  "source": "patent US20040019024A1",
  "about": "“Use of vitamin d derivatives as bone resorption inhibitors” (priority 2000, published 2004)",
  "key": {"[1]": {"test_system": "bone marrow cells of Paget's disease of bone patients", "assay": "Osteoclast formation induced by 1α,25-dihydroxyvitamin D3 in bone marrow cultures from Paget's disease of bone patients", "type": "cell-based, human", "conditions": "for osteoclast formation (average number of cells ± S.D.): Paget's marrow", "excerpt": "(§1) Mononuclear cells were fractionated from bone marrow cells of healthy normal persons according to a method of Kurihara et al. (Endocrinology, vol. 126, 2733-2741 (1990)). Briefly, bone marrow cells were obtained from normal persons, a mononuclear cell fraction was collected by Hypaque-Ficoll density gradient centrifugation, the cell fraction was washed with α-Minimal Essential Media (α-MEM) 3 times, and the cells dispersed in α-MEM containing 10% fetal bovine serum. This mononuclear cell suspension was seeded in 100-mm tissue culture plates, the culture plate was kept for 90 minutes at 37° C. in a 4% CO2-air atmosphere, and the non-adherent cells were collected. The non-adherent mononuclear cells were dispersed into α-MEM culture medium containing 20% horse serum at 10^6 cells/ml, the cell suspension was seeded into 96-well multi plates at 100 μl/well.\nThe capacity of the compound 11 (23S isomer) to inhibit osteoclast formation induced by 1α,25-dihydroxyvitamin D3 was evaluated as follows: Various concentrations of 1α,25-dihydroxyvitamin D3, various concentrations of compound 11 ([…]) solution were added to each well. The culture medium was replaced twice weekly and the cultures continued for 3 weeks at 37° C. in an atmosphere of 4% CO2-air. Osteoclasts that formed were identified by their capacity to bind the 23C6 antibody. The nuclei were counter stained with methyl green. Cells that reacted with the 23C6 antibody and had 3 or more nuclei were scored as osteoclasts.\nBone marrow cells were obtained from involved bones of patients with Paget's disease of bone and processed and cultured as described above for normal bone cells. The cultures were treated in an identical manner with 1α,25-dihydroxyvitamin D3 and/or compound 11 (23S isomer) as described in Example 1.\nBone marrow cultures were performed as described in Example 1, with the exception that different types of vitamin D antagonists were added to at varying concentrations to bone marrow cultures stimulated with 1α,25-dihydroxyvitamin D3. The bone marrow cells were taken from involved bones of patients with Paget's disease of bone and the cultures were performed as described in Example 2. There are two diastereoisomers, based on the asymmetric carbon at the 23 position, in compounds 13 and 16. The isomer having the shorter retention time on reverse phase HPLC analysis was the more polar isomer and the isomer having the longer retention time was the less polar isomer."}, "vitamin D deficient rats": {"test_system": "vitamin D deficient rats", "assay": "Bone resorption (serum calcium) induced by 1α,25-dihydroxyvitamin D3 in vitamin D deficient rats", "type": "in vivo, Wistar rats", "protocol": "Four-week-old male Wistar rats purchased from Japan SLC (Shizuoka, in Japan) were used. The animals were kept in wire-net cages (three animals in a cage) and raised for 7 weeks with free access to a vitamin D-deficient diet (Ca, 0.0036%; P, 0.3%; Harlan Taklad Research Diet, Madison, Wis., U.S.A.) and drinking water (well water treated with hypochlorite of […]±0.2 ppm). Temperature was kept at 23±1° C. and the humidity at 55±10%. Five animals were used for each experimental group. The control animals received intravenously administered solvent (5% ethanol-0.1% Triton X-100-physiological saline solution), and the experimental animals were intravenously administered 1α,25-dihydroxyvitamin D3 at a dose of 0.25 μg/kg. For animals receiving vitamin D derivatives, compound 11 (23S isomer) was administered intravenously at a dose of 2 μg/kg, 10 μg/kg or 50 μg/kg, or the compound 11 (23S isomer) with or without 1α,25-dihydroxyvitamin D3 at a dose of 0.25 μg/kg. The volume was 2 ml/kg for each animal. 24 hours after administration, a blood sample was taken out from abdominal descending aorta under ether anesthesia, the serum was collected according to conventional methods, and the calcium concentration in the serum was measured. The calcium concentrations were measured according to OCPC-method (Am. J. Clin. Pathol., vol. 45, 290-296 (1966)) with an autoanalyzer (type 7070, manufactured by Hitachi Seisakusho)."}, "[2]": {"test_system": "bone marrow cells of normal persons", "assay": "Osteoclast formation induced by 1α,25-dihydroxyvitamin D3 in normal human bone marrow cultures", "type": "cell-based", "conditions": "for osteoclast formation (average number of cells ± S.D.): compound alone, normal marrow, 3 weeks", "excerpt": "as §1, with “μl/well. The capacity of the compound 11 (23S isomer) to inhibit osteoclast formation induced by 1α,25-dihydroxyvitamin D3 was evaluated as follows: Various concentrations of 1α,25-dihydroxyvitamin D3, various concentrations of compound 11 (23S isomer) or a combination of 10^−8 M 1α,25-dihydroxyvitamin D3 solution and various concentrations of compound 11 (23S isomer) solution were added to each well. The culture medium was replaced twice weekly and the cultures continued for 3 weeks at 37° C. in an atmosphere of 4% CO2-air. Osteoclasts that formed were identified by their capacity to bind the 23C6 antibody. The nuclei were counter stained with methyl green. Cells that reacted with the 23C6 antibody and had 3 or more nuclei were scored as osteoclasts.” for “μl/well.”"}, "[3]": {"conditions": "10^−10 M 1α,25-dihydroxyvitamin D3 + compound 10^−7 M"}, "[4]": {"conditions": "10^−10 M 1α,25-dihydroxyvitamin D3 + compound 10^−8 M"}, "[5]": {"conditions": "10^−10 M 1α,25-dihydroxyvitamin D3 + compound 10^−9 M"}, "[6]": {"conditions": "compound alone, Paget's marrow cultures"}},
  "data": [
    {"smiles": "C=C1CC(CC(C)C2CCC3C(=CC=C4CC(O)CC(O)C4=C)CCCC32C)CC1=O", "note": "(single isomer, unassigned; less polar) [compound 13 (less polar isomer)]", "values": [
      {"measurement": "osteoclast formation (average number of cells ± S.D.)", "setting": "[1]; [3]", "result": "14 ± 1", "unit": "cells"},
      {"measurement": "osteoclast formation (average number of cells ± S.D.)", "setting": "[1]; [4]", "result": "70 ± 2", "unit": "cells"},
      {"measurement": "osteoclast formation (average number of cells ± S.D.)", "setting": "[1]; [5]", "result": "127 ± 4", "unit": "cells"},
      {"measurement": "induction of osteoclast formation by the compound alone (in words)", "setting": "[1]; Paget's marrow cultures", "result": "did not induce the osteoclast formation"},
      {"measurement": "osteoclast formation (average number of cells ± S.D.)", "setting": "[1]; compound alone, 10^−7 M", "result": "1 ± 1", "unit": "cells"},
      {"measurement": "osteoclast formation (average number of cells ± S.D.)", "setting": "[1]; compound alone, 10^−8 M", "result": "6 ± 2", "unit": "cells"},
      {"measurement": "osteoclast formation (average number of cells ± S.D.)", "setting": "[1]; compound alone, 10^−9 M", "result": "7 ± 1", "unit": "cells"},
      {"measurement": "effect on basal osteoclast formation (in words)", "setting": "[1]; [6]", "result": "inhibited basal osteoclast formation"}
    ]},
    {"smiles": "C=C1CC(CC(C)C2CCC3C(=CC=C4CC(O)CC(O)C4=C)CCCC32C)CC1=O", "note": "(single isomer, unassigned; more polar) [compound 13 (more polar isomer)]", "values": [
      {"measurement": "osteoclast formation (average number of cells ± S.D.)", "setting": "[1]; [3]", "result": "31 ± 5", "unit": "cells"},
      {"measurement": "osteoclast formation (average number of cells ± S.D.)", "setting": "[1]; [4]", "result": "79 ± 9", "unit": "cells"},
      {"measurement": "osteoclast formation (average number of cells ± S.D.)", "setting": "[1]; [5]", "result": "152 ± 12", "unit": "cells"},
      {"measurement": "induction of osteoclast formation by the compound alone (in words)", "setting": "[1]; Paget's marrow cultures", "result": "did not induce the osteoclast formation"},
      {"measurement": "osteoclast formation (average number of cells ± S.D.)", "setting": "[1]; compound alone, 10^−7 M", "result": "3 ± 4", "unit": "cells"},
      {"measurement": "osteoclast formation (average number of cells ± S.D.)", "setting": "[1]; compound alone, 10^−8 M", "result": "25 ± 4", "unit": "cells"},
      {"measurement": "osteoclast formation (average number of cells ± S.D.)", "setting": "[1]; compound alone, 10^−9 M", "result": "44 ± 5", "unit": "cells"},
      {"measurement": "effect on basal osteoclast formation (in words)", "setting": "[1]; [6]", "result": "inhibited basal osteoclast formation"}
    ]},
    {"smiles": "C=C1/C(=C\\C=C2/CCC[C@]3(C)[C@@H]([C@H](C)CCCC(C)(C)O)CC[C@@H]23)C[C@@H](O)C[C@@H]1O", "note": "[1α,25-dihydroxyvitamin D3, reference compound]", "values": [
      {"measurement": "osteoclast formation at 10^−10 M (in words)", "setting": "[1]; 10^−10 M, bone marrow cells from Paget's disease of bone patients", "result": "is induced"},
      {"measurement": "lowest concentration inducing osteoclast formation", "setting": "[1]; Paget's marrow cultures", "result": "10^−11 M"},
      {"measurement": "osteoclast formation (average number of cells ± S.D.)", "setting": "[1]; compound alone, 10^−7 M", "result": "205 ± 6", "unit": "cells"},
      {"measurement": "osteoclast formation (average number of cells ± S.D.)", "setting": "[1]; compound alone, 10^−8 M", "result": "206 ± 16", "unit": "cells"},
      {"measurement": "osteoclast formation (average number of cells ± S.D.)", "setting": "[1]; compound alone, 10^−9 M", "result": "211 ± 25", "unit": "cells"},
      {"measurement": "osteoclast formation (average number of cells ± S.D.)", "setting": "[1]; compound alone, 10^−10 M", "result": "180 ± 15", "unit": "cells"},
      {"measurement": "osteoclast formation (average number of cells ± S.D.)", "setting": "[1]; compound alone, 10^−11 M", "result": "134 ± 14", "unit": "cells"},
      {"measurement": "serum calcium concentration compared to controls (in words)", "setting": "vitamin D deficient rats; 0.25 μg/kg, 24 hours after receiving", "result": "significant increased serum calcium concentration"},
      {"measurement": "serum Ca concentration", "setting": "vitamin D deficient rats; compound alone, 0.25 μg/kg intravenously, 24 hours after administration", "result": "5.42 ± 0.12", "unit": "mg/100 ml serum"},
      {"measurement": "osteoclast formation at 10^−10 M (in words)", "setting": "[2]; 10^−10 M, bone marrow cells of normal persons", "result": "is not induced"},
      {"measurement": "osteoclast formation (average number of cells ± S.D.)", "setting": "[2]; 10^−7 M", "result": "91 ± 7", "unit": "cells"},
      {"measurement": "osteoclast formation (average number of cells ± S.D.)", "setting": "[2]; 10^−8 M", "result": "87 ± 12", "unit": "cells"},
      {"measurement": "osteoclast formation (average number of cells ± S.D.)", "setting": "[2]; 10^−9 M", "result": "34 ± 6", "unit": "cells"},
      {"measurement": "osteoclast formation (average number of cells ± S.D.)", "setting": "[2]; 10^−10 M", "result": "11 ± 2", "unit": "cells"},
      {"measurement": "osteoclast formation (average number of cells ± S.D.)", "setting": "[2]; 10^−11 M", "result": "13 ± 3", "unit": "cells"},
      {"measurement": "concentration at which osteoclast formation was maximal", "setting": "[2]; normal marrow cultures", "result": "10^−8 M"}
    ]},
    {"smiles": "C=C1CC(CC(C)C2CCC3C(=CC=C4CC(O)CC(O)C4=C)CCCC32C)OC1=O", "note": "(stereo not drawn) [compound 11 (23R isomer)]", "values": [
      {"measurement": "osteoclast formation (average number of cells ± S.D.)", "setting": "[1]; [3]", "result": "18 ± 9", "unit": "cells"},
      {"measurement": "osteoclast formation (average number of cells ± S.D.)", "setting": "[1]; [4]", "result": "70 ± 12", "unit": "cells"},
      {"measurement": "osteoclast formation (average number of cells ± S.D.)", "setting": "[1]; [5]", "result": "145 ± 8", "unit": "cells"},
      {"measurement": "induction of osteoclast formation by the compound alone (in words)", "setting": "[1]; Paget's marrow cultures", "result": "did not induce the osteoclast formation"},
      {"measurement": "osteoclast formation (average number of cells ± S.D.)", "setting": "[1]; compound alone, 10^−7 M", "result": "1 ± 1", "unit": "cells"},
      {"measurement": "osteoclast formation (average number of cells ± S.D.)", "setting": "[1]; compound alone, 10^−8 M", "result": "20 ± 3", "unit": "cells"},
      {"measurement": "osteoclast formation (average number of cells ± S.D.)", "setting": "[1]; compound alone, 10^−9 M", "result": "32 ± 3", "unit": "cells"},
      {"measurement": "effect on basal osteoclast formation (in words)", "setting": "[1]; [6]", "result": "inhibited basal osteoclast formation"}
    ]}
  ]
}
